Test results published in patent publication US20160184340A1, “THE USE OF SPINOSYNS AND SPINOSYN COMPOSITIONS AS LOCAL ANESTHETICS AND AS ANTIARRHYTHMIC AGENTS” (Entarco SA, priority 2010, published 2016).
Values joined by “and” are separate entries in the source; they are usually repeats but may differ in a detail not shown here. Equal entries are not always repeated. Structures can show the parent of a compound that is named as a salt. Where two headings read alike, the source gives them in different places.

Tests used:
male Sprague-Dawley rats [1] = test: Pain response testing, foot pinch test (Example 1, comparison with Lidocaine); type: in vivo; details: for Foot Pinch Test average per animal, round 1: group average (1 = no anesthetic effect, 0 = effect); for Foot Pinch Test average per animal, round 1 / Foot Pinch Test Results Round 1: 45 minutes post dose; for Foot Pinch Test average per animal, round 1 / Foot Pinch Test average per animal, round 2 / Foot Pinch Test average per animal, round 3 / Foot Pinch Test average per animal, round 4 / Foot Pinch Test average per animal, round 5 / Foot Pinch Test average per animal, round 6: SQ 1.33 mL/kg (spinosad 12 mg/kg; Lidocaine 26.6 mg/kg); for Foot Pinch Test average per animal, round 2 / Foot Pinch Test average per animal, round 3 / Foot Pinch Test average per animal, round 4 / Foot Pinch Test average per animal, round 5 / Foot Pinch Test average per animal, round 6: group average; for Foot Pinch Test average per animal, round 2 / Foot Pinch Test Results Round 2: 70 minutes post dose; for Foot Pinch Test average per animal, round 3 / Foot Pinch Test Results Round 3: 1.5 hour post dose; for Foot Pinch Test average per animal, round 4 / Foot Pinch Test Results Round 4: 2 hours post dose; for Foot Pinch Test average per animal, round 5 / Foot Pinch Test Results Round 5: 2.5 hours post dose; for Foot Pinch Test average per animal, round 6 / Foot Pinch Test Results Round 6: 4 hours post dose; for Foot Pinch Test Results Round 1 / Foot Pinch Test Results Round 2 / Foot Pinch Test Results Round 3 / Foot Pinch Test Results Round 4 / Foot Pinch Test Results Round 5 / Foot Pinch Test Results Round 6: individual animal; for Foot Pinch Test Results Round 1: single SQ 1.33 mL/kg into left hind foot (spinosad 12 mg/kg; Lidocaine 2% solution, 26.6 mg/kg); for Foot Pinch Test Results Round 2 / Foot Pinch Test Results Round 3 / Foot Pinch Test Results Round 4 / Foot Pinch Test Results Round 5 / Foot Pinch Test Results Round 6: single SQ 1.33 mL/kg (spinosad 12 mg/kg; Lidocaine 26.6 mg/kg)
Procedure: Positive control: Lidocaine (Manufacturer: VetTek), as a Lidocaine Hydrochloride (2% solution or approx. 74 mM)
Assay: Pain response testing-foot pinch
Animals used: male Sprague-Dawley rats
Experimental set-up. The test article was administered as follows:
Approximately 1.33 mL/kg spinosad solution was administered once, subcutaneously at 12 mg/kg (9 mg/mL, 1.33 mL/kg) into the left hind foot of each rat in the treatment group (Group 3), positive control group (Group 2, Lidocaine, 1.33 mL/kg), and control vehicle group (Group 1, DMSO, 1.33 mL/kg).
Beginning approximately 45 minutes post-dose all animals were subjected to pain response testing, foot pinch test. The test was conducted on each rat, in order, and then repeated on each, 5 more times (6 rounds of testing) through 4 hours post-dose. The foot pinch test measured the rodent's tolerance of pressure on their foot. The rat was removed from its cage and the treated foot was pinched. Whether or not the rodent's foot responded to the pinch was documented. The treatment group averages were compared to positive and negative control group averages (Table 3 and FIG. 1).
Six total rounds of foot pinch-pain response testing were conducted at approximately 45, 70, 90, 120, 150, and 240 minutes post-dose. Time of dosing and pain testing results were recorded for each animal.

male Sprague-Dawley rats [2] = test: Foot pinch test, duration of action and reversible effects (Example 2); type: in vivo; details: for Foot Pinch Test average per animal, round 1 / Foot Pinch Test average per animal, round 2 / Foot Pinch Test average per animal, round 3 / Foot Pinch Test average per animal, round 4 / Foot Pinch Test average per animal, round 5: group average; for Foot Pinch Test average per animal, round 1 / Foot Pinch Test Results Round 1: 1 hour post dose; for Foot Pinch Test average per animal, round 2 / Foot Pinch Test Results Round 2: 4 hours post dose; for Foot Pinch Test average per animal, round 3 / Foot Pinch Test Results Round 3: 6 hours post dose; for Foot Pinch Test average per animal, round 4 / Foot Pinch Test Results Round 4: 8 hours post dose; for Foot Pinch Test average per animal, round 5 / Foot Pinch Test Results Round 5: 24 hours post dose; for Foot Pinch Test Results Round 2 / Foot Pinch Test Results Round 3 / Foot Pinch Test Results Round 4 / Foot Pinch Test Results Round 5 / Foot Pinch Test Results Round 1: individual animal
Procedure: This test was conducted to establish spinosad's reversible local anesthetic effects and confirm the prolonged effect. The same assay as in example 1 was used.
Test article: spinosad in DMSO 9 mg/ml, administered in two doses; high dose 9 mg/kg and low dose 4.5 mg/kg.
The treatment group averages were compared to positive and negative control group averages (Table 6 and FIG. 2).

[3] = molecular target: cloned hERG potassium channels (Homo sapiens, UniProt Q12809)
Procedure: Rational for Ion channel selection: Inhibition of hERG (IKr) channels closely predicts the cardiac action potential prolongation. […] This stable expressed hERG cell line is widely used for hERG testing. The percentage inhibition of spinosad on human-ERG currents were evaluated from the gold standard manual patch clamp studies.
Test sample: spinosad (Supplier:Sigma-Aldrich/Fluka), in DMSO 9 mg/ml (0.8% w/w or approx. 12 mM)
Positive control: Terfenadine (Supplier: Sigma-Aldrich), in DMSO at a concentration of 1 mM.
All the final solutions contained no more than 0.3% DMSO.
Assay: Electrophysiology recording: Micropipette was pulled from borosilicate glass with the pipette tip resistance between 3-5 MΩ. For each experiment, a single dish of cells is removed from the incubator, washed twice with room temperature ECS and then placed on the microscope stage. A commercial patch clamp amplifier was used for the whole cell recordings.
Voltage protocol and current recording: The tail currents were evoked at room temperature once every 30 s by a 3 s −50 mV repolarizing pulse following a 2 s+50 mV depolarizing pulse with a hold voltage of −80 mV. A 50 ms depolarized pulse to −50 mV at the beginning of the voltage protocol served as a baseline for calculating the amplitude of the peak tail current. Only stable cells with recording parameters above threshold were allowed to enter the drug application procedure. The hERG currents were allowed to stabilize over a 3 minutes period in the presence of a vehicle alone prior to the application of spinosad. The cells were kept in the test solution until the peak tail current was stable (<5% change) for about 5 sweeps or for a maximum of 6 min, whichever came first.
Acceptance criteria for measurements: 1. Whole-cell membrane resistance (Rm) was greater than 1000 MΩ throughout the experiment. 2. Initial current was greater than 300 pA. 3. Series resistance value following establishment of whole-cell mode was less than 12 MΩ. 4. The leak current that the cell began with or developed over time was less than 10% of the ionic current magnitude (up to a maximum of 80 pA).

[4] = no value or species printed; cited from earlier work

cloned hERG potassium channels, sequence (Q12809 whole entry): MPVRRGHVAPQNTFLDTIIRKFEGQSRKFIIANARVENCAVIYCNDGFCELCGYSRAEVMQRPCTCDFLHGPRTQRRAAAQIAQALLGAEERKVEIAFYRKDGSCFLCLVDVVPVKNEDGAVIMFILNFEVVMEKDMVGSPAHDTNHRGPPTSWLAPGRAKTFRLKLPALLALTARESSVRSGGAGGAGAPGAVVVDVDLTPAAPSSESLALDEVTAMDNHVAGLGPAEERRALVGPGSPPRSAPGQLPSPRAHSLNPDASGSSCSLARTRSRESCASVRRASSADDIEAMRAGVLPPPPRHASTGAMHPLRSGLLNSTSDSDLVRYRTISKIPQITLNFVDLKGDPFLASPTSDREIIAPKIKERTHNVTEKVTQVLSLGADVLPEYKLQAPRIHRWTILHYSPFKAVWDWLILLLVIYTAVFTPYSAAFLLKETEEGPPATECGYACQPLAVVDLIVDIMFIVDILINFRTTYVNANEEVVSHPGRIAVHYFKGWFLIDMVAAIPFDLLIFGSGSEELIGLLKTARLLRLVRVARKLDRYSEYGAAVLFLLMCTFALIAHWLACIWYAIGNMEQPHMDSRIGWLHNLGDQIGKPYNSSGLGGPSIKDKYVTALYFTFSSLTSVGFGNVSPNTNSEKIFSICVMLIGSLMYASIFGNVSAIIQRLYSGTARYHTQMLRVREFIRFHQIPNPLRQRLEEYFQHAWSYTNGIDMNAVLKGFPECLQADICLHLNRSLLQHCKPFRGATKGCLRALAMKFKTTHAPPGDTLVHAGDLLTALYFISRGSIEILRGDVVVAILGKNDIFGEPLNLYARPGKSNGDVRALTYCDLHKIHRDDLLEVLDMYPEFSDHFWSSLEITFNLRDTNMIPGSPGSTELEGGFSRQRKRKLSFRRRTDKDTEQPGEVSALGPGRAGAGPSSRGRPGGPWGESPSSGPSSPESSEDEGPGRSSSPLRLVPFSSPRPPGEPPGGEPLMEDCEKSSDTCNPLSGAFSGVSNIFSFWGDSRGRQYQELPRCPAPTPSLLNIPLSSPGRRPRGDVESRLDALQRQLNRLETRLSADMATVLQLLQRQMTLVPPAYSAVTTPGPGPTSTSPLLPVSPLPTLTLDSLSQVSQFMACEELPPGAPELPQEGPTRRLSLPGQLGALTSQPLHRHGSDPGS

Compound: CCN(CC)CC(=O)Nc1c(C)cccc1C [Lidocaine, Lidocaine Hydrochloride]
- Time by which localized anesthetic effect resolved (male Sprague-Dawley rats [1]; Lidocaine group, 1.33 mL/kg SQ, post-dose): ~70 min
- Foot Pinch Test average per animal, round 1 (male Sprague-Dawley rats [1]): 0.00
- Foot Pinch Test average per animal, round 2 (male Sprague-Dawley rats [1]): 0.67
- Foot Pinch Test average per animal, round 3 (male Sprague-Dawley rats [1]): 1.00
- Foot Pinch Test average per animal, round 4 (male Sprague-Dawley rats [1]): 1.00
- Foot Pinch Test average per animal, round 5 (male Sprague-Dawley rats [1]): 1.00
- Foot Pinch Test average per animal, round 6 (male Sprague-Dawley rats [1]): 1.00
- Foot Pinch Test Results Round 1 (male Sprague-Dawley rats [1]): 0.00
- Foot Pinch Test Results Round 2 (male Sprague-Dawley rats [1]; Hydrochloride): 1.00 (4×) and 0.00 (2×)
- Foot Pinch Test Results Round 3 (male Sprague-Dawley rats [1]): 1.00
- Foot Pinch Test Results Round 4 (male Sprague-Dawley rats [1]): 1.00
- Foot Pinch Test Results Round 5 (male Sprague-Dawley rats [1]): 1.00
- Foot Pinch Test Results Round 6 (male Sprague-Dawley rats [1]): 1.00

Compound: spinosad
- Foot Pinch Test average per animal, round 1 (male Sprague-Dawley rats [1]): 0.00
- Foot Pinch Test average per animal, round 2 (male Sprague-Dawley rats [1]): 0.00
- Foot Pinch Test average per animal, round 3 (male Sprague-Dawley rats [1]): 0.17
- Foot Pinch Test average per animal, round 4 (male Sprague-Dawley rats [1]): 0.17
- Foot Pinch Test average per animal, round 5 (male Sprague-Dawley rats [1]): 0.33
- Foot Pinch Test average per animal, round 6 (male Sprague-Dawley rats [1]): 0.50
- Foot Pinch Test Results Round 1 (male Sprague-Dawley rats [1]): 0.00
- Foot Pinch Test Results Round 2 (male Sprague-Dawley rats [1]): 0.00
- Foot Pinch Test Results Round 3 (male Sprague-Dawley rats [1]): 0.00 (5×) and 1.00
- Foot Pinch Test Results Round 4 (male Sprague-Dawley rats [1]): 0.00 (5×) and 1.00
- Foot Pinch Test Results Round 5 (male Sprague-Dawley rats [1]): 0.00 (4×) and 1.00 (2×)
- Foot Pinch Test Results Round 6 (male Sprague-Dawley rats [1]): 0.00 (3×) and 1.00 (3×)
- Duration of local anesthetic effect (remained unresolved) (male Sprague-Dawley rats [1]; single SQ dose 12 mg/kg, study duration 4 hours): ≥ 4 h
- Tolerability (male Sprague-Dawley rats [1]; single subcutaneous dose into the footpad at 12 mg/kg): well tolerated
- Foot Pinch Test average per animal, round 1 (male Sprague-Dawley rats [2]; 4.5 mg/kg SQ): 0.50
- Foot Pinch Test average per animal, round 2 (male Sprague-Dawley rats [2]; 4.5 mg/kg SQ): 0.83
- Foot Pinch Test average per animal, round 3 (male Sprague-Dawley rats [2]; 4.5 mg/kg SQ): 1.00
- Foot Pinch Test average per animal, round 4 (male Sprague-Dawley rats [2]; 4.5 mg/kg SQ): 1.00
- Foot Pinch Test average per animal, round 5 (male Sprague-Dawley rats [2]; 4.5 mg/kg SQ): 1.00
- Foot Pinch Test average per animal, round 1 (male Sprague-Dawley rats [2]; 9.0 mg/kg SQ): 0.00
- Foot Pinch Test average per animal, round 2 (male Sprague-Dawley rats [2]; 9.0 mg/kg SQ): 0.17
- Foot Pinch Test average per animal, round 3 (male Sprague-Dawley rats [2]; 9.0 mg/kg SQ): 0.50
- Foot Pinch Test average per animal, round 4 (male Sprague-Dawley rats [2]; 9.0 mg/kg SQ): 0.50
- Foot Pinch Test average per animal, round 5 (male Sprague-Dawley rats [2]; 9.0 mg/kg SQ): 1.00
- Foot Pinch Test Results Round 2 (male Sprague-Dawley rats [2]; 4.5 mg/kg SQ, 4.5 mg/kg): 1.00 (5×) and 0.00
- Foot Pinch Test Results Round 3 (male Sprague-Dawley rats [2]; 4.5 mg/kg SQ): 1.00
- Foot Pinch Test Results Round 4 (male Sprague-Dawley rats [2]; 4.5 mg/kg SQ): 1.00
- Foot Pinch Test Results Round 5 (male Sprague-Dawley rats [2]; 4.5 mg/kg SQ): 1.00
- Foot Pinch Test Results Round 2 (male Sprague-Dawley rats [2]; 9.0 mg/kg SQ, 9 mg/kg): 0.00 (5×) and 1.00
- Foot Pinch Test Results Round 3 (male Sprague-Dawley rats [2]; 9.0 mg/kg SQ, 9 mg/kg): 0.00 (3×) and 1.00 (3×)
- Foot Pinch Test Results Round 4 (male Sprague-Dawley rats [2]; 9.0 mg/kg SQ, 9 mg/kg): 0.00 (3×) and 1.00 (3×)
- Foot Pinch Test Results Round 5 (male Sprague-Dawley rats [2]; 9.0 mg/kg SQ): 1.00
- Foot Pinch Test Results Round 1 (male Sprague-Dawley rats [2]; spinosad high dose 9.0 mg/kg SQ foot pad): 0.00
- Foot Pinch Test Results Round 1 (male Sprague-Dawley rats [2]; spinosad low dose 4.5 mg/kg SQ foot pad, 4.5 mg/kg): 1.00 (3×) and 0.00 (3×)
- Duration of local anesthetic effect (male Sprague-Dawley rats [2]; single SQ dose 4.5 mg/kg): lasted during the first hour of study only
- Duration of local anesthetic effect (remained unresolved) (male Sprague-Dawley rats [2]; single SQ dose 9 mg/kg): 6 to 8 h
- Reversibility of local anesthetic effect (male Sprague-Dawley rats [2]; single SQ dose 9 mg/kg): fully reversible at 24 hours
- Tolerability (male Sprague-Dawley rats [2]; single subcutaneous dose into the footpad at 9 mg/kg): well tolerated
- % Block Cell #2 ([3]; 1.35 μM): 3.5%
- % Block Cell #3 ([3]; 1.35 μM): 0.6%
- Average Inhibition (%) of hERG currents ([3]; 1.35 μM): 7.2±8.9%
- % Block Cell #1 ([3]; 1.35 μM, hERG tail current, room temperature): 17.3%
- % Block Cell #1 ([3]; 4.50 μM): 26.9%
- % Block Cell #2 ([3]; 4.50 μM): 19.2%
- % Block Cell #3 ([3]; 4.50 μM): 19.4%
- Average Inhibition (%) of hERG currents ([3]; 4.50 μM): 21.8±4.4%
- % Block Cell #1 ([3]; 13.50 μM): 30.3%
- % Block Cell #2 ([3]; 13.50 μM): 48.4%
- % Block Cell #3 ([3]; 13.50 μM): 47.7%
- % Block Cell #4 ([3]; 13.50 μM): 40.2%
- Average Inhibition (%) of hERG currents ([3]; 13.50 μM): 41.7±8.4%
- % Block Cell #2 ([3]; 36.00 μM): 77.5%
- % Block Cell #3 ([3]; 36.00 μM): 84.1%
- % Block Cell #4 ([3]; 36.00 μM): 73.2%
- Average Inhibition (%) of hERG currents ([3]; 36.00 μM): 78.3±5.5%
- Reversibility of blocking on hERG current ([3]; saline wash): reversible after one minute of saline wash
- Concentration dependence of hERG current inhibition ([3]; whole cell recordings, HEK293-hERG stable cell line): inhibited hERG currents in a concentration-dependent manner
- LD50 relative to lidocaine [4]: much higher LD50 than lidocaine
